In patent publication US4251516A, “2-Deoxy-3-O-Demethylfortimicins” (Abbott Laboratories, priority 1979, dated 1981):
Where a name gives a salt, the structure may show the parent alone. Read-outs that look alike come from different tables or passages of the source.

Experiments:
Assay in all cases: two-fold agar dilution MIC, Mueller-Hinton agar
Assay type in all cases: cell-based
[1] = system: Staphyloccocus aureus Smith; conditions: Staphylococcus aureus, read-out: Minimum Inhibitory Concentration
Description: (§1) The in vitro antibiotic activities are determined by a two-fold agar dilution method using Mueller-Hinton agar, 10 ml per Petri dish. The agar is inoculated with one loopful (0.001 ml loop) of a 1:10 dilution of a 24 hour broth culture of the indicated test organism and incubated at 37° C. for 24 hours. Appropriate fortimicins are used as control antibiotics. The activities, listed in the following Table I, minimum inhibitory concentrations(MIC) are expressed in mcg/ml.

Escherichia coli Juhl = conditions: read-out: Minimum Inhibitory Concentration
Description: as §1

[2] = system: Pseudomonas aeruginosa KY 8516; conditions: read-out: Minimum Inhibitory Concentration
Description: as §1

[3] = system: Streptoccocus faecalis 10541; conditions: read-out: Minimum Inhibitory Concentration
Description: as §1

[4] = system: Pseudomonas aeruginosa 27853; conditions: read-out: Minimum Inhibitory Concentration
Description: as §1

[5] = system: Pseudomonas aeruginosa BMH #10; conditions: read-out: Minimum Inhibitory Concentration
Description: as §1

[6] = system: Klebsiella pneumoniae 10031; conditions: read-out: Minimum Inhibitory Concentration
Description: as §1

Shigella sonnei 9290 = conditions: 37° C., 24 hours, read-out: Minimum Inhibitory Concentration
Description: as §1

[7] = system: Salmonella typhimurium Ed #9; conditions: Salmonella enterica, read-out: Minimum Inhibitory Concentration
Description: as §1

[8] = system: Escherichia coli BL 3676(Res); conditions: read-out: Minimum Inhibitory Concentration
Description: as §1

[9] = system: Pseudomonas aeruginosa KY 8512; conditions: read-out: Minimum Inhibitory Concentration
Description: as §1

[10] = system: Pseudomonas aeruginosa 209; conditions: read-out: Minimum Inhibitory Concentration
Description: as §1

[11] = system: Enterobacter aerogenes 13048; conditions: read-out: Minimum Inhibitory Concentration
Description: as §1

Proteus vulgaris JJ = conditions: read-out: Minimum Inhibitory Concentration
Description: as §1

[12] = system: Proteus mirabilis Fin. #9; conditions: read-out: Minimum Inhibitory Concentration
Description: as §1

Serratia marcescens 4003 = conditions: read-out: Minimum Inhibitory Concentration
Description: as §1

Providencia 1577 = conditions: read-out: Minimum Inhibitory Concentration
Description: as §1

[13] = Staphyloccocus aureus Smith, agar dilution, 37° C., 24 hours
[14] = Escherichia coli Juhl, agar dilution, 37° C., 24 hours
[15] = KY8516, Pseudomonas aeruginosa KY 8516, agar dilution, 37° C., 24 hours
[16] = Streptoccocus faecalis 10541, agar dilution, 37° C., 24 hours
[17] = Pseudomonas aeruginosa BMH #10, agar dilution, 37° C., 24 hours
[18] = Klebsiella pneumoniae 10031, agar dilution, 37° C., 24 hours
[19] = Salmonella typhimurium Ed #9, agar dilution, 37° C., 24 hours
[20] = KY8512, Pseudomonas aeruginosa KY 8512, agar dilution, 37° C., 24 hours
[21] = Pseudomonas aeruginosa 209, agar dilution, 37° C., 24 hours
[22] = Klebsiella aerogenes, Enterobacter aerogenes 13048, agar dilution, 37° C., 24 hours
[23] = Proteus vulgaris JJ, agar dilution, 37° C., 24 hours
[24] = Proteus mirabilis Fin. #9, agar dilution, 37° C., 24 hours
[25] = Serratia marcescens 4003, agar dilution, 37° C., 24 hours
[26] = Providencia 1577, agar dilution, 37° C., 24 hours
[27] = Pseudomonas aeruginosa, 27853, 24 h
[28] = Escherichia coli BL 3676(Res), agar dilution, 37° C., 24 hours
[29] = Pseudomonas aeruginosa, KY8512, 24 h

SMILES	MIC [1, 13]	MIC (Escherichia coli Juhl; [14])	MIC [2, 15]	MIC [3, 16]	MIC [5, 17]	MIC [6, 18]	MIC (Shigella sonnei 9290)	MIC [7, 19]	MIC ([8]; Escherichia coli, 24 h)	MIC [9, 20]	MIC [10, 21]	MIC [11, 22]	MIC (Proteus vulgaris JJ; [23])	MIC [12, 24]	MIC (Serratia marcescens 4003; [25])	MIC (Providencia 1577; [26])	MIC [4, 27]	MIC [8, 28]	MIC [9, 29]	further results
CC(N)C1CCC(N)C(OC2C(N)CC(O)C(N(C)C(=O)CN)C2O)O1 (stereo not shown) [2-Deoxy-3-O-demethylfortimicin A . 4HCl, 2-Deoxy-3-O-Demethylfortimicin A tetrahydrochloride]	0.39 µg/mL	6.2 µg/mL	100 µg/mL	50 µg/mL	0.78 µg/mL	3.1 µg/mL	12.5 µg/mL	1.56 µg/mL	12.5 µg/mL	3.1 µg/mL	100 µg/mL	3.1 µg/mL	3.1 µg/mL	3.1 µg/mL	3.1 µg/mL	1.56 µg/mL	–	–	–	MIC ([4]; Pseudomonas aeruginosa 27853, agar dilution, 37° C., 24 hours): 6.2 µg/mL
COC1CC(N)C(OC2OC(C(C)N)CCC2N)C(O)C1N(C)C(=O)CN (stereo not shown) [2-Deoxyfortimicin A . 4 HCl, 2-Deoxyfortimicin A tetrahydrochloride]	0.78 µg/mL	6.2 µg/mL	50 µg/mL	50 µg/mL	0.78 µg/mL	1.56 µg/mL	12.5 µg/mL	1.56 µg/mL	–	–	100 µg/mL	3.1 µg/mL	3.1 µg/mL	6.2 µg/mL	3.1 µg/mL	3.1 µg/mL	12.5 µg/mL	25 µg/mL	12.5 µg/mL	–
CC(N)C1CCC(N)C(OC2C(N)C(O)C(O)C(N(C)C(=O)CN)C2O)O1 (stereo not shown) [3-O-Demethylfortimicin A . 4HCl, 3-O-demethylfortimicin A tetrahydrochloride]	0.54 µg/mL	2.1 µg/mL	69 µg/mL	17 µg/mL	0.27 µg/mL	1.1 µg/mL	4.3 µg/mL	1.1 µg/mL	–	2.1 µg/mL	69 µg/mL	2.1 µg/mL	2.1 µg/mL	2.1 µg/mL	4.3 µg/mL	1.1 µg/mL	–	8.6 µg/mL	–	–
COC1C(O)C(N)C(OC2OC(C(C)N)CCC2N)C(O)C1N(C)C(=O)CN (stereo not shown) [Fortimicin A . 4HCl, fortimicin A tetrahydrochloride]	–	–	–	–	–	–	12.5 µg/mL	–	25 µg/mL	–	–	–	–	–	–	–	12.5 µg/mL	–	12.5 µg/mL	MIC ([1]; 24 h): 0.78 µg/mL; MIC (Escherichia coli Juhl; Escherichia coli, 24 h): 6.2 µg/mL; MIC ([2]; Pseudomonas aeruginosa, KY8516, 24 h): 100 µg/mL; MIC ([3]; 24 h): 50 µg/mL; MIC ([5]; Pseudomonas aeruginosa, 24 h): 0.78 µg/mL; MIC ([6]; Klebsiella pneumoniae, 10031, 24 h): 3.1 µg/mL; MIC ([7]; TYPHIMURIUM, 24 h): 1.56 µg/mL; MIC ([10]; Pseudomonas aeruginosa, 209, 24 h): 100 µg/mL; MIC ([11]; Klebsiella aerogenes, 13048, 24 h): 3.1 µg/mL; MIC (Proteus vulgaris JJ; Proteus vulgaris, 24 h): 3.1 µg/mL; MIC ([12]; Proteus mirabilis, 24 h): 6.2 µg/mL; MIC (Serratia marcescens 4003; Serratia marcescens, 4003, 24 h): 3.1 µg/mL; MIC (Providencia 1577; Providencia, 1577, 24 h): 6.2 µg/mL
